Values joined by “and” are separate entries in the source; they are usually repeats but may differ in a detail not shown here. Equal values may be shown once. Records with an inconclusive call do not appear.
System: BDF1 mice, colon carcinoma 38 sc, T/C %
Experiment: NCI In Vivo Anticancer Drug Screen. Data for tumor model Colon Carcinoma 38 (subcutaneous) in B6D2F1 (BDF1) mice
In short: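 Transplantable tumor in mice; compound-treated vs vehicle-dosed controls. Measured survival or tumor size; value = T ÷ C.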

[1] = endpoint: median tumor weight (est.), dose: 25.0 mg/kg/injection, schedule: Q07DX002 (ip), vehicle: saline with Tween-80, higher = larger tumour
[2] = endpoint: median tumor weight (est.), dose: 100.0 mg/kg/injection, schedule: Q07DX002 (ip), vehicle: saline with Tween-80, higher = larger tumour
[3] = endpoint: median tumor weight (est.), dose: 200.0 mg/kg/injection, schedule: Q07DX002 (ip), vehicle: saline with Tween-80, higher = larger tumour

CCCCCCCCCCCCCCCCCC(=O)OCC(=O)OCC(=O)[C@]1(O)Cc2c(O)c3c(c(O)c2[C@@H](OC2CC(N)C(O)C(C)O2)C1)C(=O)c1c(OC)cccc1C3=O (stereo partly drawn)
T/C (endpoint: median survival time, dose: 11.5 mg/kg/injection, schedule: Q07DX002 (iv), vehicle: saline, higher = longer survival): 111 % of control
T/C (endpoint: median tumor weight (est.), dose: 1.69 mg/kg/injection, schedule: Q07DX002 (ip), vehicle: saline with Tween-80, higher = larger tumour): 70 % of control
T/C (endpoint: median tumor weight (est.), dose: 3.38 mg/kg/injection, schedule: Q07DX002 (ip), vehicle: saline with Tween-80, higher = larger tumour): 93 % of control
T/C (endpoint: median tumor weight (est.), dose: 6.75 mg/kg/injection, schedule: Q07DX002 (ip), vehicle: saline with Tween-80, higher = larger tumour): 79 % of control and 89 % of control and 97 % of control
T/C (endpoint: median tumor weight (est.), dose: 27.0 mg/kg/injection, schedule: Q07DX002 (ip), vehicle: saline with Tween-80, higher = larger tumour): 18 % of control and 37 % of control

COC1CC(C)C(OC)C2=CC(=O)C=C(NC(=O)/C(C)=C/C=C\C(C)C(OC(N)=O)/C(C)=C\C(C)C1OC)C2=O (stereo not drawn)
T/C (endpoint: median tumor weight (est.), dose: 3.13 mg/kg/injection, schedule: Q07DX002 (ip), vehicle: saline + alcohol, higher = larger tumour): 111 % of control
T/C (endpoint: median tumor weight (est.), dose: 6.25 mg/kg/injection, schedule: Q07DX002 (ip), vehicle: saline + alcohol, higher = larger tumour): 110 % of control
T/C (endpoint: median tumor weight (est.), dose: 12.5 mg/kg/injection, schedule: Q07DX002 (ip), vehicle: saline + alcohol, higher = larger tumour): 105 % of control
T/C (endpoint: median tumor weight (est.), dose: 25.0 mg/kg/injection, schedule: Q07DX002 (ip), vehicle: saline + alcohol, higher = larger tumour): 110 % of control
T/C (endpoint: median tumor weight (est.), dose: 50.0 mg/kg/injection, schedule: Q07DX002 (ip), vehicle: saline + alcohol, higher = larger tumour): 102 % of control

O=C1CN(CCN2CC(=O)N(CN3CCOCC3)C(=O)C2)CC(=O)N1CN1CCOCC1
T/C (endpoint: median tumor weight (est.), dose: 12.5 mg/kg/injection, schedule: Q07DX002 (ip), vehicle: water, higher = larger tumour): 168 % of control
T/C (endpoint: median tumor weight (est.), dose: 25.0 mg/kg/injection, schedule: Q07DX002 (ip), vehicle: water, higher = larger tumour): 158 % of control
T/C (endpoint: median tumor weight (est.), dose: 50.0 mg/kg/injection, schedule: Q07DX002 (ip), vehicle: water, higher = larger tumour): 36 % of control
T/C (endpoint: median tumor weight (est.), dose: 100.0 mg/kg/injection, schedule: Q07DX002 (ip), vehicle: water, higher = larger tumour): 113 % of control and 90 % of control
T/C (endpoint: median tumor weight (est.), dose: 200.0 mg/kg/injection, schedule: Q07DX002 (ip), vehicle: water, higher = larger tumour): 57 % of control

CCCN1COC(OCC)C(C)(C)C1 (stereo not drawn)
T/C [1]: 73 % of control
T/C [2]: 68 % of control and 73 % of control
T/C [3]: 77 % of control

COC1CC(CC2CCC(C)C(C(C)C(=O)O)O2)OC2(OC(C)(C3CCC(C)(C4OC(C5OC(O)(CO)C(C)CC5C)CC4C)O3)CC2C)C1C (stereo not drawn)
T/C (endpoint: median tumor weight (est.), dose: 0.3 mg/kg/injection, schedule: Q07DX002 (ip), vehicle: Klucel (hydroxypropylcellulose) (HPC), higher = larger tumour): 61 % of control
T/C (endpoint: median tumor weight (est.), dose: 0.31 mg/kg/injection, schedule: Q07DX002 (ip), vehicle: Klucel (hydroxypropylcellulose) (HPC), higher = larger tumour): 42 % of control
T/C (endpoint: median tumor weight (est.), dose: 1.25 mg/kg/injection, schedule: Q07DX002 (ip), vehicle: Klucel (hydroxypropylcellulose) (HPC), higher = larger tumour): 74 % of control and 82 % of control
T/C (endpoint: median tumor weight (est.), dose: 2.5 mg/kg/injection, schedule: Q07DX002 (ip), vehicle: Klucel (hydroxypropylcellulose) (HPC), higher = larger tumour): 58 % of control and 70 % of control
T/C (endpoint: median tumor weight (est.), dose: 5.0 mg/kg/injection, schedule: Q07DX002 (ip), vehicle: Klucel (hydroxypropylcellulose) (HPC), higher = larger tumour): 46 % of control and 55 % of control
T/C (endpoint: median tumor weight (est.), dose: 10.0 mg/kg/injection, schedule: Q07DX002 (ip), vehicle: Klucel (hydroxypropylcellulose) (HPC), higher = larger tumour): 52 % of control

Cc1ccc(-c2cc(=O)c3cccc(CC(=O)O)c3o2)cc1
T/C [2]: 83 % of control
T/C [3]: 50 % of control

COC1=C(OC)C(=O)C(SC/C=C(\C)CCCC(C)CCCC(C)CCCC(C)C)=CC1=O (stereo not drawn)
T/C [1]: 55 % of control
T/C [2]: 116 % of control
T/C [3]: 86 % of control
T/C (endpoint: median tumor weight (est.), dose: 400.0 mg/kg/injection, schedule: Q07DX002 (ip), vehicle: saline with Tween-80, higher = larger tumour): 102 % of control

NC(=S)Nc1cccc2ccccc12
T/C (endpoint: median tumor weight (est.), dose: 6.25 mg/kg/injection, schedule: Q07DX002 (ip), vehicle: saline with Tween-80, higher = larger tumour): 164 % of control
T/C (endpoint: median tumor weight (est.), dose: 12.5 mg/kg/injection, schedule: Q07DX002 (ip), vehicle: saline with Tween-80, higher = larger tumour): 151 % of control
T/C [1]: 162 % of control

Reference: PubChem BioAssay AID212 (DTP/NCI, 2004)
